Test results taken from US12234223B2, “Phthalazinone compound, and preparation method therefor and medical use thereof” (SHANGHAI JEMINCARE PHARMACEUTICALS CO., LTD, priority 2020, dated 2025).

Legend:
VCaP cells = test: Inhibitory effect on VCaP cell proliferation (Cell Titer Glo); format: cell-based; conditions: Homo sapiens, 144 h; for IC50: VCaP cells, 5% FBS and 0.1 nM R1881, 6 days; for Emax: maximum degree of VCaP cell proliferation inhibition, 6 days
Description: A tumor cell line Vcap (ATCC Cat. No. CRL-2876) was respectively cultured with DMEM (Gibco Cat. No. 11965-092) medium containing 10% FBS (Gibco Cat. No. 10099-141C). During testing, Vcap cells were replaced with a DMEM culture fluid containing 5% FBS and 0.1 nM R1881 (Sigma Cat. No. R0908). The assay method was as follows:
Vcap cells were seeded to a 384-well plate (Perkin Elmer Cat. No. 6007460) at a cell density of 1200 cells/well and a volume of 20 μL/well; after the cells were incubated overnight in a carbon dioxide incubator (Thermo), the prepared compound solutions with different concentrations were added at a volume of 5 μL/well; meanwhile, a corresponding solvent was provided as a control; after the cells were continuously incubated in the incubator for 6 days, the cell plate and the contents thereof were equilibrated to room temperature; 25 μL of a Cell Titer Glor (Promega Cat. No. G7573) reagent was added to each well; after vibration and uniform mixing, incubation in the dark was performed for 10-30 minutes, and a signal value was detected with Envision microplate reader (PerkinElmer).
A percentage inhibition rate of compound-treated wells was calculated through solvent control wells on the plate, GraphPad prism was used to fit the percentage inhibition rate data corresponding to different concentrations, and IC50 value was calculated by a 4-parameter nonlinear logistic formula.
Emax: a maximum degree of VCaP cell proliferation inhibition. IC50: a compound concentration required to achieve half the maximum degree of VCaP cell proliferation inhibition.

Androgen receptor = biological target: T1, Androgen receptor (Homo sapiens, UniProt P10275); test: Androgen receptor In-Cell-Western assay (AR degradation in VCaP cells); format: cell-based; conditions: 24 hours treatment; for DC50: concentration for half the maximum degradation degree of AR in VCaP cells; for Dmax: maximum degradation degree of AR in VCaP cells
T1 construct: Dmax: a maximum degradation degree of AR in VCaP cells; endogenous in cells; host or cells: VCaP cells
T1 sequence (P10275 1-920): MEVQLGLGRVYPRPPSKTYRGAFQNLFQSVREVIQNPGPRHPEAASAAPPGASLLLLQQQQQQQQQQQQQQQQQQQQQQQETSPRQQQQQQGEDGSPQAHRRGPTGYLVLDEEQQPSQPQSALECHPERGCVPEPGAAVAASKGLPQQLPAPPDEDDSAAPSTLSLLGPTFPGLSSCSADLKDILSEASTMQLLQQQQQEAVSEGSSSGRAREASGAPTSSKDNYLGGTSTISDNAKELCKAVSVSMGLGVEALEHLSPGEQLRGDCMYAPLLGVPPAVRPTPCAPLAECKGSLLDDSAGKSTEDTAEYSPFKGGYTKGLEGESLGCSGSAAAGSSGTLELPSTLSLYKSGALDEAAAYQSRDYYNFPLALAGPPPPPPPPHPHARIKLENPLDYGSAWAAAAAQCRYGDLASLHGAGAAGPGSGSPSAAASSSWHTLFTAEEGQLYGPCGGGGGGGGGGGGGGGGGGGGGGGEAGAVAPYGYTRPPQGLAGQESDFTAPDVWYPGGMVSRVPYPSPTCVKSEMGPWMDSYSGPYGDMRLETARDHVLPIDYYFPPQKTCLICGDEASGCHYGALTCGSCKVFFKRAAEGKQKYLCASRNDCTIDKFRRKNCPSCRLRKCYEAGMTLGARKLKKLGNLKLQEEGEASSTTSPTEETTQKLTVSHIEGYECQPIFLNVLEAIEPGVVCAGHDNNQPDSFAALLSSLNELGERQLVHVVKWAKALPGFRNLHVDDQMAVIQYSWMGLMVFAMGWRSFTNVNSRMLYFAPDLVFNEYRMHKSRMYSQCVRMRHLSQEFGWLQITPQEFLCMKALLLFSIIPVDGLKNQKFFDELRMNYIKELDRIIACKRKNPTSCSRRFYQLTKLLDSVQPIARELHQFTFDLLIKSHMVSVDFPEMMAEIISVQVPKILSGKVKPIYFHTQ
Description: This assay evaluated compound performance in VCap cells. An intracellular androgen receptor was assayed by In-Cell-Western according to the assay procedure described below.
In a 96-well cell culture plate (Corning 3599) pretreated by poly-D-Lysin, Vcap cells were seeded to a Vcap cell assay medium [phenol red containing DMEM (Gibco Cat. No.: 11995065); fetal bovine serum FBS (Gibco Cat. No.: 10099141C)] at a volume of 100 μL/well and a cell density of 50,000 cells/well. Cells were cultured for at least two days. • 1. First, cells were treated with a compound. The compound was subjected to a gradient dilution by using DMSO and a cell culture medium, so that DMSO contained in the cell culture plate was diluted to 0.5%: a polypropylene plate was used according to the following protocol: • (1) (i) A 200× stock solution plate was prepared in DMSO; (ii) a 10 mM stock solution was diluted at 1:4 (10 μL stock solution+40 μL DMSO=2000 uM) with DMSO to enter row 2; (iii) a 1:4 (10 μL protac+40 μL DMSO) gradient dilution was performed from row 2 to row 9, row 1 was reserved for a 2000 uM reference compound and row 10 was reserved for DMSO. (iv) There were 8 concentrations (the final concentrations on the 200× plate was 2000 uM, 400 uM, 80 uM, etc.) in total. (2) (i) A 3× stock solution was prepared in the medium; (ii) 3 μL of the 200× stock solution was transferred to 197 μL of the medium (by a 12-channel pipette, from row 1 to row 10), i.e. a 3× stock solution plate. (iii) Uniform mixing was performed for the stock solution plate. (3) (i) The medium of Vcap cells was replaced with a fresh medium, with the medium volume of 100 μL. (ii) The uniformly-mixed 3× stock solution was transferred to the cell culture plate (by the 12-channel pipette, 50 μL of the stock solution was transferred from row 1 to row 10). (iii) The cells were cultured for 24 hours. • 2. The expression level of the intracellular androgen receptor after compound treatment was detected, and assay was performed according to the following method. • (1) (i) An equal volume of 8% paraformaldehyde was added to the cell culture plate for cell fixation. A fixative solution in the cell plate was discarded, and the cell plate was washed three times with PBS. (ii) A Triton solution was prepared (the stock solution was diluted at 1:1000). The solution in the cell plate was discarded, and a volume of 200 μL of a Triton diluent was added to each well. (iii) A 2× blocking solution was prepared (a 10× blocking stock solution was diluted at 1:4). The solution in the cell plate was discarded, and a volume of 100 μL of the 2× blocking solution was added to each well. (iv) A primary antibody solution (Androgen receptor Rabbit mAb, Cell Signaling Technology Cat. No.: 5153; 1:1000 dilution) was prepared. The solution in the cell plate was discarded, a volume of 100 μL of a primary antibody diluent was added to each well, and incubation was performed at 4 degrees overnight. (v) The primary antibody solution was discarded, and the cell plate was washed with 1× Wash buffer (Wash buffer in the present application means a washing buffer solution). (vi) A secondary antibody solution (Goat anti Rabbit IgG (H+L) Secondary Antibody, HRP, Thermo Cat. No.: 31460; 1:5000 dilution) was prepared, and a volume of 100 μL of a secondary antibody diluent was added to each well for incubation. (vii) The secondary antibody solution in the cell plate was discarded, and the cell plate was washed with 1× Wash buffer. (viii) A TMB chromogenic solution (BD Cat. No.: 550534) was prepared, and a volume of 100 μL of the chromogenic solution was added to each well. (ix) A volume of 50 μL of a stop solution (BD Cat. No.: 550534) was added to each well. (x) Absorption values at OD 450 nm and 570 nm were read by EnVision. (2) (i) Normalized analysis was performed for the number of cells in each well. The solution in the cell plate was discarded, and the cell plate was washed three times with wash buffer. […]

IC50 (VCaP cells) | DC50 (Androgen receptor) | Dmax (Androgen receptor) | SMILES | Emax (VCaP cells)
11 nM | 5.3 nM | 114% | CC1(C)[C@H](NC(=O)c2cnc(N3CCC(CN4CCN(c5ccc6c(=O)n(C7CCC(=O)NC7=O)ncc6c5)CC4)CC3)nc2)C(C)(C)[C@H]1Oc1ccc(C#N)c(Cl)c1 (some centres unmarked) [Compound 2] | 60%
– | 12 nM | 104% | CC1(C)[C@H](NC(=O)c2ccc(N3CCC(CN4CCN(c5ccc6c(=O)n(C7CCC(=O)NC7=O)ncc6c5)CC4)CC3)cc2)C(C)(C)[C@H]1Oc1ccc(C#N)c(C(F)(F)F)c1 (some centres unmarked) [Compound 3] | –
33 nM | 6.8 nM | 98% | CC1(C)[C@H](NC(=O)c2ccc(N3CCC(CN4CCN(c5ccc6c(=O)n(C7CCC(=O)NC7=O)ncc6c5)CC4)CC3)nc2)C(C)(C)[C@H]1Oc1ccc(C#N)c(Cl)c1 (some centres unmarked) [Compound 4] | 69%
37 nM | 8.4 nM | 105% | CC1(C)[C@H](NC(=O)c2ccc(N3CCC(CN4CCN(c5ccc6c(=O)n(C7CCC(=O)NC7=O)ncc6c5)CC4)CC3)c(F)c2)C(C)(C)[C@H]1Oc1ccc(C#N)c(Cl)c1 (some centres unmarked) [Compound 5] | 62%
– | 15 nM | 92% | Cc1cc(O[C@H]2C(C)(C)[C@H](NC(=O)c3ccc(N4CCC(CN5CCN(c6ccc7c(=O)n(C8CCC(=O)NC8=O)ncc7c6)CC5)CC4)cc3)C2(C)C)ccc1C#N (some centres unmarked) [Compound 7] | –
– | 8.9 nM | 75% | CC1(C)C(NC(=O)c2ccc(N3CCC(CN4CCN(c5ccc6c(=O)n(C7CCC(=O)NC7=O)ncc6c5)CC4)CC3)nn2)C(C)(C)C1Oc1ccc(C#N)c(Cl)c1 (centres unmarked) [Compound 8] | –
– | 35 nM | 87% | CC1(C)[C@H](NC(=O)c2cnc(N3CCC(CN4CCN(c5ccc6c(=O)n(C7CCC(=O)NC7=O)ncc6c5)CC4)CC3)cn2)C(C)(C)[C@H]1Oc1ccc(C#N)c(Cl)c1 (some centres unmarked) [Compound 10] | –
– | 38 nM | 80% | CC1(C)[C@H](NC(=O)c2ccc(N3CCC(CN4CCN(c5ccc6cnn(C7CCC(=O)NC7=O)c(=O)c6c5)CC4)CC3)cc2)C(C)(C)[C@H]1Oc1ccc(C#N)c(Cl)c1 (some centres unmarked) [Compound 11] | –
– | 9.6 nM | 94% | N#Cc1ccc(O[C@H]2CC[C@H](NC(=O)c3ccc(N4CCC(CN5CCN(c6ccc7c(=O)n(C8CCC(=O)NC8=O)ncc7c6)CC5)CC4)cc3)CC2)cc1Cl (some centres unmarked) [Compound 13] | –
20 nM | 11 nM | 91% | N#Cc1ccc(O[C@H]2CC[C@H](NC(=O)c3cnc(N4CCC(CN5CCN(c6ccc7c(=O)n(C8CCC(=O)NC8=O)ncc7c6)CC5)CC4)nc3)CC2)cc1Cl (some centres unmarked) [Compound 14] | 61%
– | 16 nM | 84% | N#Cc1ccc(O[C@H]2CC[C@H](NC(=O)c3ccc(N4CC(CN5CCN(c6ccc7c(=O)n(C8CCC(=O)NC8=O)ncc7c6)CC5)C4)cc3)CC2)cc1Cl (some centres unmarked) [Compound 15] | –
– | 5.7 nM | 92% | CC1(C)[C@H](NC(=O)c2ccc(N3CCC(CN4CCN(c5ccc6c(=O)n(C7CCC(=O)NC7=O)ncc6c5)CC4)C3)cc2)C(C)(C)[C@H]1Oc1ccc(C#N)c(Cl)c1 (some centres unmarked) [Compound 16] | –
– | 6.9 nM | 88% | CC1(C)[C@H](NC(=O)c2ccc(N3CCC(CN4CC5CC4CN5c4ccc5c(=O)n(C6CCC(=O)NC6=O)ncc5c4)CC3)cc2)C(C)(C)[C@H]1Oc1ccc(C#N)c(Cl)c1 (some centres unmarked) [Compound 17] | –
42 nM | – | – | CC1(C)[C@H](NC(=O)c2ccc(N3CC(CN4CCN(c5ccc6c(=O)n(C7CCC(=O)NC7=O)ncc6c5)CC4)C3)cc2)C(C)(C)[C@H]1Oc1ccc(C#N)c(Cl)c1 (some centres unmarked) [Compound 20] | 60%
20 nM | 6.9 nM | 98% | CC1(C)[C@H](NC(=O)c2cnc(N3CCC(CCN4CCN(c5ccc6c(=O)n(C7CCC(=O)NC7=O)ncc6c5)CC4)C3)nc2)C(C)(C)[C@H]1Oc1ccc(C#N)c(Cl)c1 (some centres unmarked) [Compound 23] | 56%
18 nM | 6.8 nM | 106% | CC1(C)[C@H](NC(=O)c2cnc(N3CCC(CCN4CCN(c5ccc6c(=O)n(C7CCC(=O)NC7=O)ncc6c5)CC4)CC3)nc2)C(C)(C)[C@H]1Oc1ccc(C#N)c(Cl)c1 (some centres unmarked) [Compound 24] | 53%
27 nM | 10 nM | 116% | CC1(C)[C@H](NC(=O)c2cnc(N3CCCC(CN4CCN(c5ccc6c(=O)n(C7CCC(=O)NC7=O)ncc6c5)CC4)CC3)nc2)C(C)(C)[C@H]1Oc1ccc(C#N)c(Cl)c1 (some centres unmarked) [Compound 25] | 62%
– | 5.2 nM | 145% | CC1(C)[C@H](NC(=O)c2ccc(N3CCC(CN4CCN(c5ccc6c(=O)n(C7CCC(=O)NC7=O)nc(C(F)(F)F)c6c5)CC4)CC3)cc2)C(C)(C)[C@H]1Oc1ccc(C#N)c(Cl)c1 (some centres unmarked) [Compound 32] | –
